# Data from ChEMBL document CHEMBL1201862, “PubChem BioAssay data set” (2004).
# Activity calls are given as the source filed them. Cut-off read from the data, not from the text of the source, for most assays here: actives have a measured EC50 and inactives only a lower limit.
# Columns and labels:
# Protein RecA = biological target: T1, Protein RecA (Mycobacterium tuberculosis, UniProt P9WHJ3); assay: Fluorescence Cell-Free Homogeneous Dose Retest to Identify Inhibitors of RecA-Intein Splicing Activity. [Related pubchem assays (depositor defined):AID2097, AID2223, AID489010, AID492950]; assay type: functional
# T1 sequence (P9WHJ3 whole entry): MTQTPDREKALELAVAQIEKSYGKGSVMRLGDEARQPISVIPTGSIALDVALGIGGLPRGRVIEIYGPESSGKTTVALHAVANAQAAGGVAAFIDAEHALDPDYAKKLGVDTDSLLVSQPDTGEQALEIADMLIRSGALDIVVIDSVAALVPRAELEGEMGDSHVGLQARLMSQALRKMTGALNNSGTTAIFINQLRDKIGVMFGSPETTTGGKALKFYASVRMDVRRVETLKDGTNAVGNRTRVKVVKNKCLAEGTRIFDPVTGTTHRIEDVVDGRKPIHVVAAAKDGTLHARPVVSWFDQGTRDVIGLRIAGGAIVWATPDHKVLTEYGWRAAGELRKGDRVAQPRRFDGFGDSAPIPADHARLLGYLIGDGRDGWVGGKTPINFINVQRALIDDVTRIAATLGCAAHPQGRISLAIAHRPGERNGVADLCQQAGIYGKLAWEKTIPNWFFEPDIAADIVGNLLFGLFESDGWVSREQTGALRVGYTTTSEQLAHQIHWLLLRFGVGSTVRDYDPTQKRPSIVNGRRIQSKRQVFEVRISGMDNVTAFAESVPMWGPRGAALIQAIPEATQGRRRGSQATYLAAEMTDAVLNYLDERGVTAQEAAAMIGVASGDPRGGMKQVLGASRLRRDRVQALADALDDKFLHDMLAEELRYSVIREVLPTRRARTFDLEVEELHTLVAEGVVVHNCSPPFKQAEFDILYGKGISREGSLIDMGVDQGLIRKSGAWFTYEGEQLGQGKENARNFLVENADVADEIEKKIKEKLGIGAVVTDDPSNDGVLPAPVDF
# [1] = biological target: Luciferin 4-monooxygenase (Photinus pyralis, UniProt P08659); assay: inhibition of purified Photinus pyralis luciferase – biochemical, luminescence, dose response (AID 1891)
# Sequence of Luciferin 4-monooxygenase (P08659 whole entry): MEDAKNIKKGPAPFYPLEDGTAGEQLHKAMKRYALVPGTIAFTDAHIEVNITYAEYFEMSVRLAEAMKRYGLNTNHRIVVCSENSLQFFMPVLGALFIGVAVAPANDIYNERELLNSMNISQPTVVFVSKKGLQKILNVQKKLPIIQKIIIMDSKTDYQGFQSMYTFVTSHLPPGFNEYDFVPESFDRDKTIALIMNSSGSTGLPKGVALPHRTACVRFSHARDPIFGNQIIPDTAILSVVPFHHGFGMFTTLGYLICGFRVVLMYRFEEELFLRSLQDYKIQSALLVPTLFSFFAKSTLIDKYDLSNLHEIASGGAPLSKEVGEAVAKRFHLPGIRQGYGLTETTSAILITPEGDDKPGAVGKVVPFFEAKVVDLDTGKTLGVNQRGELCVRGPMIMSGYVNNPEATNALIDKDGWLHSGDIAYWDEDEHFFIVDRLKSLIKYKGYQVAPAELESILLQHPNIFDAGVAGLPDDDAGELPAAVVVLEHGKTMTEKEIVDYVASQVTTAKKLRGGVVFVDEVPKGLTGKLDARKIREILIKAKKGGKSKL
# [2] = Luminescence Cell-Based Dose Confirmation HTS to Identify Inhibitors of Platelet Dense Granule Release. [Related pubchem assays: 1663 (Primary HTS), 1678 (Summary of Project)]; assay type: functional
# Cytochrome P450 1A2 = biological target: T2, Cytochrome P450 1A2 (Homo sapiens, UniProt P05177);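 note: PubChem cytochrome P450 panel assay, CYP1A2 panel member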
# T2 sequence (P05177 whole entry): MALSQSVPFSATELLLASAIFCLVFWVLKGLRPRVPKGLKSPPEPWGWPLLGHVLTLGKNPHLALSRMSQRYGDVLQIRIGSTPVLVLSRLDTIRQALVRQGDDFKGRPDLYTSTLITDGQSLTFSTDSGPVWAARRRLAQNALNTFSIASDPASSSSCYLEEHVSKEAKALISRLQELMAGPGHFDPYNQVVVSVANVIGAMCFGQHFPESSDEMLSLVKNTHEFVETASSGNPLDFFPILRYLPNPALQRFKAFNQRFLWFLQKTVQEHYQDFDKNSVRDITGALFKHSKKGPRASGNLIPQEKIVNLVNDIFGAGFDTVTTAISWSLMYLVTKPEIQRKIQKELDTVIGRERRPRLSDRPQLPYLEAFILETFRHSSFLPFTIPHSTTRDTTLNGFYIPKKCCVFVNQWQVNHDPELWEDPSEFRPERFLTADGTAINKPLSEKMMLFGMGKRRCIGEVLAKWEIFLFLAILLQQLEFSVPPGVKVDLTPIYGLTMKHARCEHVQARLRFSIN
# [3] = Trypanosoma cruzi growth suppression in host cells – NIH3T3 host cells, beta-gal luminescence, confirmation (AID 2044); assay type: functional, cell-based;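 note: intracellular parasites grown in NIH/3T3 mouse fibroblasts as host cells; luminescent beta-galactosidase reporter signal from transgenic T. cruzi replicating inside host cells; inhibitors lower the luminescence signal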
# [4] = Luminescence Cell-Based Dose Retest to Confirm Inhibitors of Cancer Stem Cells. [Related pubchem assays (depositor defined):AID2717, AID2721]; assay type: functional; conditions: Homo sapiens
# [5] = NIH3T3 cell viability loss – ATP luminescence, mouse fibroblasts, counter-screen, dose response (AID 2010); assay type: functional, cell-based;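 note: cells exposed to compound for about 90 hours before reading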
# H4 = assay: Luminescence Cell-Based Dose Response HTS to Identify Activators of 5'UTR Stem-Loop Driven Prion Protein mRNA Translation in H4 Neuroglioblastoma Cells. [Related pubchem assays: 1829 (Project Summary), 1814 (Primary HTS)]; assay type: functional; conditions: Homo sapiens
# [6] = Luminescence Cell-Based Dose Confirmation HTS to Identify Activators of 5'UTR Stem-Loop Driven Alpha-Synuclein mRNA Translation in H4 Neuroglioblastoma Cells. [Related pubchem assays: 1829 (Project Summary), 1814 (Primary HTS)]; assay type: functional
# [7] = Luminescence Cell-Based Dose Response HTS to Identify Activators of Luciferase Translation or Activity in H4 […] Cells. [Related pubchem assays: 1829 (Project Summary), 1814 (Primary HTS)]; assay type: functional
# [8] = alpha-synuclein stem-loop luciferase translation blockers – H4 neuroglioma cells, luminescence, confirmation (AID 1988); assay type: functional, cell-based
# [9] = luciferase reporter signal suppression in cells – H4 neuroglioma cells, luminescence, dose response (AID 1990); assay type: functional, cell-based
# [10] = Luminescence Cell-Based Dose Response HTS to Identify Inhibitors of 5'UTR Stem-Loop Driven Prion Protein mRNA Translation in H4 Neuroglioblastoma Cells. [Related pubchem assays: 1827 (Project Summary), 1813 (Primary HTS)]; assay type: functional
# [11] = viability of uninfected HEp-2 cells – cell-based, HTS, cytotoxicity control for RSV inhibitor project, dose response (AID 2410); assay type: functional; conditions: human respiratory syncytial virus
# [12] = biological target: T3, Replicative DNA helicase DnaB (Mycobacterium tuberculosis, UniProt P9WMR3); assay: DnaB intein splicing inhibitors, dose response, biochemical, cell-free fluorescence (AID 449749); assay type: functional
# T3 sequence (P9WMR3 whole entry): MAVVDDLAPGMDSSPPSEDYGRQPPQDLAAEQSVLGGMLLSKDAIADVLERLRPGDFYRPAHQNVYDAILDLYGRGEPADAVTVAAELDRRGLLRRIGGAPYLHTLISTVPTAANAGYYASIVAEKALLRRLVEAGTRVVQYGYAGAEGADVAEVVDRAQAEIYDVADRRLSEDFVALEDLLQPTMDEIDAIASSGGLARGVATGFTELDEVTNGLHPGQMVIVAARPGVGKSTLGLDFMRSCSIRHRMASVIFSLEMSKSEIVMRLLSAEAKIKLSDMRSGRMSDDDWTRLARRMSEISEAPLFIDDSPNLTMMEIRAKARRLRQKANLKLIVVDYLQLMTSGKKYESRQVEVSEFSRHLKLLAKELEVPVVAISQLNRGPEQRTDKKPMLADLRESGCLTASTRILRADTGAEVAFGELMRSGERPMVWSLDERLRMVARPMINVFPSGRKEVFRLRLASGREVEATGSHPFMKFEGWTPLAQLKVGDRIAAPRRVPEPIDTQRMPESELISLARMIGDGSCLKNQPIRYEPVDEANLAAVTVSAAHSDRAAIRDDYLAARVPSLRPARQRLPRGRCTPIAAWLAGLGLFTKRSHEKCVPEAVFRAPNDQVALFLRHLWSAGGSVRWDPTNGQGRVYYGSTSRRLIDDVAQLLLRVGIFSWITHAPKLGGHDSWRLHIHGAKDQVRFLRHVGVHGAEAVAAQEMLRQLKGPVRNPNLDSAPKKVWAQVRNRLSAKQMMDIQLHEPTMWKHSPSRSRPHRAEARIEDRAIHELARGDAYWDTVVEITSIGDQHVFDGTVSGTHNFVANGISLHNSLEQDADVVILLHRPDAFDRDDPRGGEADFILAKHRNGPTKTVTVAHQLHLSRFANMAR
# [13] = microbe, parasite or virus in culture; assay type: functional; conditions: Mycobacterium tuberculosis
# Streptococcus = assay: GAS UMAA2166 growth inhibition – luminescence, BacTiterGlo, counter-screen for streptokinase expression inhibitor project, dose response (AID 1915); assay type: functional, organism-based;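 note: potency for reduction of bacterial viability or growth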
# [14] = tested on: Streptococcus sp. 'group A'; assay: Streptococcus pyogenes SK(-)GAS viability under kanamycin – luminescence, BacTiterGlo, confirmation, counter-screen for streptokinase expression inhibitor project, dose response (AID 1900); assay type: functional, organism-based
# Streptokinase A = biological target: T4, Streptokinase A (Streptococcus pyogenes serotype M1, UniProt P10520); assay: viability-normalized secreted streptokinase activity reduction – plasminogen activation absorbance, OD405, dose response (AID 1914); assay type: functional, Streptococcus pyogenes M1 GAS;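 note: secreted streptokinase activity via plasminogen activation per viability signal from cell pellet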
# T4 sequence (P10520 whole entry): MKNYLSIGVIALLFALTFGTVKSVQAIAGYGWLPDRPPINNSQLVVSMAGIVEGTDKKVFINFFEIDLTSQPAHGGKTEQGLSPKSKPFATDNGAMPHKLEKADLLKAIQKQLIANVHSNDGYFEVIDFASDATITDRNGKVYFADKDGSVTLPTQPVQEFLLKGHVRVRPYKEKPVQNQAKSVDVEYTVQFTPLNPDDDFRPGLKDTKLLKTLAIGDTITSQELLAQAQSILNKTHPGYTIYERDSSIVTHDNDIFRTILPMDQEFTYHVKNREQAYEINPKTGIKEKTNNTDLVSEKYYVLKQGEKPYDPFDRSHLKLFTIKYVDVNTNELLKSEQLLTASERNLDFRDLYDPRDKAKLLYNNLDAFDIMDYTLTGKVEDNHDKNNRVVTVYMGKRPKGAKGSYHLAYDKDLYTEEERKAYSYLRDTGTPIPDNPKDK
# cells = assay type: functional
# [15] = P. falciparum Dd2 growth inhibitors, dose response, SYBR Green, cherry-picked samples (AID 1159567); assay type: functional, cell-based
smiles,measurement,setting,value
Cc1n[nH]c(O)c1[C@@H](c1ccccc1[N+](=O)[O-])C(C#N)C#N,EC50,Protein RecA,2.63 µM (active)
COC(=O)C1CSC(C(=O)OC)N1C(=O)Nc1ccccc1 (stereo unspecified),EC50,[1],> 112 µM (not active)
same,EC50,[2],> 112 µM (not active)
same,AC50,Cytochrome P450 1A2,25.1 µM (inconclusive)
CCOc1cc(CNc2ccc(Br)cc2)cc(Br)c1OCC(=O)NC(C)(C)C,EC50,[3],1.91 µM (active)
same,AC50,[4],31.6 µM (active)
same,EC50,[5],37.3 µM (active)
CC(C)(CO)NCC(O)COc1ccc2c(c1)CCC2 (stereo unspecified),EC50,[1],> 112 µM (not active)
same,EC50,[2],> 112 µM (not active)
COC(=O)c1cc(NC2c3ccccc3C(=O)N2c2cccnc2)cc(C(=O)OC)c1 (stereo unspecified),EC50,[1],> 112 µM (not active)
same,EC50,[2],> 112 µM (not active)
Cc1ccc(C(=O)NCCn2cc(SCC(=O)Nc3nnc(C)s3)c3ccccc32)cc1,EC50,H4,> 120 µM (not active)
same,EC50,[6],7.83 µM (active)
same,EC50,[7],23.2 µM (active)
same,EC50,[1],> 112 µM (not active)
same,EC50,[2],> 112 µM (not active)
C=CCn1c(SCc2c(C)noc2C)nc2sc3c(c2c1=O)CCCCC3,AC50,[4],0.856 µM (active)
same,EC50,[8],15.1 µM (active)
same,EC50,[9],14.7 µM (active)
same,EC50,[10],14.8 µM (active)
S=C(Nc1ccccc1Cl)N1CCCC(c2ccccc2)=N1,AC50,[4],4.35 µM (active)
same,CC50,[11],25.1 µM (active)
Cc1nccn1-c1c([N+](=O)[O-])c(=O)n(C)c2ccccc12,AC50,[12],29 µM (active)
same,EC50,Protein RecA,12.2 µM (active)
Cc1cc(C)n2nc(SCc3cc(=O)oc4cc(C)c(C)cc34)nc2n1,EC50,[1],> 112 µM (not active)
same,EC50,[2],> 112 µM (not active)
NC(=O)CC(NC(=O)Cc1ccc(Br)cc1)c1ccc(N2CCN(c3ccccc3)CC2)c([N+](=O)[O-])c1 (stereo unspecified),AC50,[4],14.4 µM (active)
COc1ccc(CN2CCCC(C(=O)c3ccc(SC)cc3)C2)cc1Cn1cccn1 (stereo unspecified),CC50,[13],> 40 µM (active)
Cc1sc2ncnc(N3CCC(C(=O)NCC(=O)Nc4ccc(F)c(F)c4)CC3)c2c1C,EC50,Streptococcus,8.01 µM (active)
same,CC50,[13],30.4 µM (active)
same,EC50,[14],4.44 µM (active)
CCC(=O)N1c2ccc(S(=O)(=O)CCC(=O)N3CCN(c4ccccc4F)CC3)cc2CC1C (stereo unspecified),EC50,[1],> 112 µM (not active)
same,EC50,[2],> 112 µM (not active)
CCOc1ccc2nc(NC(=O)c3ccc(C)o3)sc2c1,EC50,[1],0.562 µM (active)
same,EC50,[2],5.87 µM (active)
Fc1ccc(-[n+]2nc(Nc3ccccc3)sc2-c2c3ccccc3cc3ccccc23)cc1,EC50,Streptococcus,9.23 µM (active)
same,AC50,[12],> 380 µM (inactive)
same,EC50,Streptokinase A,3.22 µM (active)
same,EC50,Protein RecA,10.6 µM (active)
same,EC50,[14],6.85 µM (active)
CN1C(C(=O)NCc2ccc(OC(F)(F)F)cc2)CC2Cn3c(nc4cc(Cl)c(Cl)cc43)C21 (stereo unspecified),CC50,[13],34.1 µM (active)
CC(=O)Nc1cc(OC(=O)c2ccco2)cc(OC(=O)c2ccco2)c1,AC50,[12],1.77 µM (active)
same,EC50,Protein RecA,1.03 µM (active)
Clc1cccc(CNCCNCc2cccc(Cl)c2)c1,IC50,cells,20.5 µM (active)
CCOc1ccc(N2C=Nc3ccc(OCC)cc3C2)cc1,CC50,[13],> 40 µM (active)
Cc1onc(-c2ccccc2)c1C(=O)N=C(N)c1ccc(Cl)cc1,EC50,[1],> 112 µM (not active)
same,EC50,[2],28.4 µM (active)
Cc1cc(C)nc(NC(=O)c2ccc(COc3ccccc3Cl)cc2)c1,AC50,[4],0.245 µM (active)
COc1ccc(-c2c(C#N)c(SCC(=O)c3cc4ccccc4oc3=O)nc(C)c2C(=O)Nc2ccccc2)cc1,CC50,[13],5.32 µM (active)
same,AC50,[4],0.738 µM (active)
COc1ccccc1-c1sc2ccccc2c1C#CC1(O)CCCCC1,AC50,[4],5.11 µM (active)
O=S(=O)(CCc1ccccc1)/N=C/c1cccs1,EC50,[1],> 112 µM (not active)
same,EC50,[2],> 112 µM (not active)
CCCNC(=O)N1[C@@H](C#N)[C@H](c2ccccc2-c2ccccc2F)[C@@H]1CO,AC50,[15],18.8 µM (active)
COc1ccc2c3c([nH]c2c1)[C@@H](CO)N(Cc1cccc(Cl)c1)CC31CCN(C(C)=O)CC1,AC50,[15],3.22 µM (active)
CN1CCN(C(=O)C[C@H]2C[C@@H]3c4cc(NC(=O)Nc5ccc(C(F)(F)F)cc5)ccc4O[C@@H]3[C@@H](CO)O2)CC1,AC50,[15],5.16 µM (active)
